From BindingDB's records for patent US9695132 (Celgene CAR LLC, 2017)

Experiments:
[1] = biological target: T1, Fibroblast growth factor receptor 4 (Homo sapiens, UniProt P22455); test: Omnia Assay; details: pH 7.5
Description: Omnia Assay Protocol for Potency Assessment Against FGFR 4 Enzyme. a) [FGFR4-WT]=10 nM, [ATP]=300 uM, [Y10-Sox]=10 uM (ATP KMapp 300 uM): A 10x stock solution of FGFR4-WT (PR4380C), (from Invitrogen, Carlsbad, Calif.) corresponding to method a in Table 7, was prepared as described below. Alternatively, a 10x stock solution of FGFR4-WT (F01-11G), (SignalChem, Richmond, BC) corresponding to method b in Table 7, was prepared as described below. A solution of 1.4xATP (AS001A) and 5x Tyr-Sox conjugated peptide substrate (KNZ3101) were prepared in 1x kinase reaction buffer consisting of 20 mM Tris, pH 7.5, 5 mM MgCl2, 1 mM EGTA, 5 mM β-glycerophosphate, 5% glycerol (10x stock, KB002A) and 0.2 mM DTT (DS001A). […] The serially diluted compounds were prepared on a Tecan EVO100. A second addition of 10 ul of Tyr-Sox FGFR4 substrate was added to each well and the kinase reactions were started with the addition of 35 uL of 1.4xATP. The reactions were monitored every 71 seconds for 240 minutes at λex360/λem485 in a Synergy plate reader from BioTek (Winooski, Vt.).

[2] = biological target: T1, Fibroblast growth factor receptor 4; test: Omnia Assay; details: pH 7.5; remark: listed apart in the source

T1 sequence (P22455 whole entry): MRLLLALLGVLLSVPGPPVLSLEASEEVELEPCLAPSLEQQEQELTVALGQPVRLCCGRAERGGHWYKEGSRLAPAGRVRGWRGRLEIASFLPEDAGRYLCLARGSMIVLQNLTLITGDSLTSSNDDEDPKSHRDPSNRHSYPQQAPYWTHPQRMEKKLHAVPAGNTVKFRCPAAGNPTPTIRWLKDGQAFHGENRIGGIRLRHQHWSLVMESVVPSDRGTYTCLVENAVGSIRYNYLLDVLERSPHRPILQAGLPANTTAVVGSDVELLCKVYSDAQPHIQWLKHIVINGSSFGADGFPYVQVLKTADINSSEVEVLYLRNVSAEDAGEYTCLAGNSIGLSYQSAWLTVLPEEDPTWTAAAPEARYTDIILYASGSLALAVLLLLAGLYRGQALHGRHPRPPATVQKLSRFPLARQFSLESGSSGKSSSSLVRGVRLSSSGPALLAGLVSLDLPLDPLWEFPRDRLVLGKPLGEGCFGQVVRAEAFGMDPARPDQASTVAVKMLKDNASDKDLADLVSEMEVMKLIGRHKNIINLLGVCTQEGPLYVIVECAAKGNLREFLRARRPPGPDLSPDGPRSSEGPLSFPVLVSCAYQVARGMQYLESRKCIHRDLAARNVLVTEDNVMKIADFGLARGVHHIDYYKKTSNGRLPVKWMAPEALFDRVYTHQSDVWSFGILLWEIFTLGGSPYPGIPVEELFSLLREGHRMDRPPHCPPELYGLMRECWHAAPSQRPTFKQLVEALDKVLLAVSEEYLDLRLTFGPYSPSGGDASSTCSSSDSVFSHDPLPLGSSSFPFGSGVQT

| Compound | IC50 [1] [nM] | IC50 [2] [nM] |
| --- | --- | --- |
| C=CC(=O)Nc1cc(N2CCC(C(=O)OC(C)(C)C)CC2)ccc1Nc1ncc2c(n1)N(C)C(=O)N(c1c(Cl)c(OC)cc(OC)c1Cl)C2 [US9695132, I-62] | < 100 | – |
| C=CC(=O)NC1COCC1Nc1ncc2c(n1)N(Cc1c[nH]cn1)C(=O)N(c1c(Cl)c(OC)cc(OC)c1Cl)C2 (centres undefined) [US9695132, I-214] | < 100 | – |
| C=CC(=O)Nc1cccc(Nc2ncc3c(n2)N(Cc2cccc(NC(=O)CC)c2)C(=O)C(c2c(Cl)c(OC)cc(OC)c2Cl)C3)c1 (centres undefined) [US9695132, I-232] | – | < 100 |
| C=CC(=O)Nc1ccc(Nc2ncc3c(n2)N(Cc2cccc(NC(=O)CC)c2)C(=O)C(c2c(Cl)c(OC)cc(OC)c2Cl)C3)cc1 (centres undefined) [US9695132, I-233] | – | < 100 |
